Measurements as given in patent US11078170B2 (Assembly Biosciences, Inc., priority 2017, dated 2021).

test system: HBV viral production from HepAD38 cells; experiment: Activity of test compounds on viral production from HepAD38 cells (viral load by qPCR of HBV core sequence in supernatant); format: cell-based; conditions: Hepatitis B virus, 120 h, 5 days incubation, HBV DNA in supernatant by qPCR, top concentration 10 μM, read-out: Viral Load EC50 Activity range
Summary of the method: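 HepAD38 cells, 50,000/well in tetracycline-free 2% FBS medium, treated 5 days at 37° C. with compound from 10 μM top concentration. HBV DNA in supernatant quantified by TaqMan qPCR of core sequence against DNA standards, relative to DMSO wells; CellTiter-Glo viability read in parallel. EC50/CC50 from four-parameter logistic fit.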

SMILES | EC50
CN1C(C(=O)Nc2cc(F)c(F)c(F)c2)CC(c2cccs2)NS1(=O)=O (racemic) [HBV-CSU-036, Cis-2-Methyl-5-(thiophen-2-yl)-N-(3,4,5-trifluorophenyl)-1,2,6-thiadiazinane-3-carboxamide 1,1-dioxide] | < 1 µM
CN(C)CCN1C(C(=O)Nc2ccc(F)c(Cl)c2)CC(c2nccs2)NS1(=O)=O (racemic) [HBV-CSU-074, Cis-N-(3-Chloro-4-fluorophenyl)-2-(2-(dimethylamino)ethyl)-5-(thiazol-2-yl)-1,2,6-thiadiazinane-3-carboxamide 1,1-dioxide] | > 5 µM
CN1[C@@H](C(=O)Nc2ccc(F)c(Cl)c2)C[C@@H](c2ccc(-c3nncn3C)s2)NS1(=O)=O [HBV-CSU-324-ISO-II, Cis-N-(3-Chloro-4-fluorophenyl)-2-methyl-5-(5-(4-methyl-4H-1,2,4-triazol-3-yl)thiophen-2-yl)-1,2,6-thiadiazinane-3-carboxamide 1,1-dioxide] | 1 to 5 µM
CN1C(C(=O)Nc2ccc(F)c(Cl)c2)CC(c2ncc(-c3cncn3C)s2)NS1(=O)=O (racemic) [HBV-CSU-277, Cis-N-(3-Chloro-4-fluorophenyl)-2-methyl-5-(5-(1-methyl-1H-imidazol-5-yl)thiazol-2-yl)-1,2,6-thiadiazinane-3-carboxamide 1,1-dioxide] | < 1 µM
CN1[C@@H](C(=O)Nc2ccc(F)c(Cl)c2)C[C@@H](c2cc(-c3cnn(C)c3)c(Cl)s2)NS1(=O)=O [HBV-CSU-306-ISO-II, Cis-5-(5-chloro-4-(1-methyl-1-pyrazol-4-yl)thiophen-2-yl)-N-(3-chloro-4-fluorophenyl)-2-methyl-1,2,6-thiadiazinane-3-carboxamide 1,1-dioxide] | > 5 µM
CN1[C@H](C(=O)Nc2ccc(F)c(Br)c2)C[C@H](c2cccs2)NS1(=O)=O [HBV-CSU-016-ISO-I, Cis-N-(3-Bromo-4-fluorophenyl)-2-methyl-5-(thiophen-2-yl)-1,2,6-thiadiazinane-3-carboxamide 1,1-dioxide] | < 1 µM
CN1[C@@H](C(=O)Nc2ccc(F)c(Cl)c2)C[C@@H](c2cc(-c3ccnn3C)cs2)NS1(=O)=O [HBV-CSU-289-ISO-II, Cis-N-(3-chloro-4-fluorophenyl)-2-methyl-5-(4-(1-methyl-1H-pyrazol-5-yl)thiophen-2-yl)-1,2,6-thiadiazinane-3-carboxamide 1,1-dioxide] | 1 to 5 µM
CN1[C@@H](C(=O)Nc2ccc(F)c(Cl)c2)C[C@@H](c2ncc(-c3cccnc3)s2)NS1(=O)=O [HBV-CSU-175-ISO-II, Cis-N-(3-Chloro-4-fluorophenyl)-2-methyl-5-(5-(pyridin-3-yl)thiazol-2-yl)-1,2,6-thiadiazinane-3-carboxamide 1,1-dioxide] | < 1 µM
CN1[C@H](C(=O)Nc2ccc(F)c(Cl)c2)C[C@H](c2ccc(-c3ccccc3)s2)NS1(=O)=O [HBV-CSU-116-ISO-I, Cis-N-(3-chloro-4-fluorophenyl)-2-methyl-5-(5-phenylthiophen-2-yl)-1,2,6-thiadiazinane-3-carboxamide 1,1-dioxide] | < 1 µM
CN1[C@H](C(=O)Nc2ccc(F)c(Cl)c2)C[C@@H](c2ncc(-c3cn(C)cn3)s2)NS1(=O)=O [HBV-CSU-276-Trans-ISO-II, (3S,5S)-N-(3-chloro-4-fluorophenyl)-2-methyl-5-(5-(1-methyl-1H-imidazol-4-yl)thiazol-2-yl)-1,2,6-thiadiazinane-3-carboxamide 1,1-dioxide] | 1 to 5 µM
CN1C(C(=O)Nc2ccc(F)c(Cl)c2)CC(c2ccc(O)c(Cl)c2)NS1(=O)=O (stereo not drawn) [HBV-CSU-220, Cis-N-(3-chloro-4-fluorophenyl)-5-(3-chloro-4-hydroxyphenyl)-2-methyl-1,2,6-thiadiazinane-3-carboxamide 1,1-dioxide] | < 1 µM
Cc1ncc([C@H]2C[C@@H](C(=O)Nc3ccc(F)c(Cl)c3)N(C)S(=O)(=O)N2)s1 [HBV-CSU-224-ISO-I, Cis-N-(3-Chloro-4-fluorophenyl)-2-methyl-5-(2-methylthiazol-5-yl)-1,2,6-thiadiazinane-3-carboxamide 1,1-dioxide] | < 1 µM
